Assay results from ChEMBL document CHEMBL5154791, “Optimization of a Pyrimidinone Series for Selective Inhibition of Ca2+/Calmodulin-Stimulated Adenylyl Cyclase 1 Activity for the Treatment of Chronic Pain” (J Med Chem, 2022).
Values after ≈ are worked out from the molar mass of the structure shown. Active and inactive are the calls of the source. The rule behind the calls is not given here.

Experiments:
[1] = molecular target: T1, Adenylate cyclase type 8 (Homo sapiens, UniProt P40145); assay: Inhibition of Ca2+/ CAM stimulated human AC8 activity expressed in AC3 and AC6-knockout HEK293 cells assessed as A23187 stimulated cAMP accumulation incubated for 30 mins followed by […] in presence of IBMX for 1 hr by HTRF assay; format: cell-based
[2] = molecular target: Adenylate cyclase type 1 (Homo sapiens, UniProt Q08828)
Description: Inhibition of Ca2+/ CAM stimulated human AC1 activity expressed in AC3 and AC6-knockout HEK293 cells assessed as A23187 stimulated cAMP accumulation incubated for 30 mins followed by A2318 stimulation in presence of IBMX for 1 hr by HTRF assay

[3] = molecular target: T1, Adenylate cyclase type 8; assay: Inhibition of Ca2+/ CAM stimulated human AC8 activity expressed in AC3 and AC6-knockout HEK293 cells assessed as A23187 stimulated cAMP accumulation incubated for 30 mins followed by […] in presence of IBMX for 1 hr by HTRF assay relative to control; format: cell-based; design: concentration or dose not given beside the values; details: time 90.0 min
[4] = molecular target: Vascular endothelial growth factor receptor 2 (Homo sapiens) (UniProt P35968); assay: Inhibition of human recombinant VEGFR2 assessed as inhibition of phosphorylation activity at 10 uM using 33P-labeleled peptide substrate by radiometric scintillation counting assay relative to control
[5] = Thermodynamic solubility of the compound in PBS at pH 7.4; format: physicochemical; details: read-out: Therm_solubility
[6] = molecular target: 5-hydroxytryptamine receptor 2B (Homo sapiens, UniProt P41595); assay: Binding affinity to 5-HT2B receptor (unknown origin) assessed as displacement of radioligand at 10 uM by radioligand binding assay
[7] = system: HEK293; assay: Cytotoxicity against HEK293 cells assessed as reduction in cell viability at 30 uM incubated for 1 hr by cell titer glo assay; format: toxicity, cell-based; details: human, hek293, 1 h
[8] = molecular target: T1, Adenylate cyclase type 8; assay: Inhibition of Ca2+/ CAM stimulated human AC8 expressed in AC3 and AC6-knockout HEK293 cells assessed as A23187 stimulated cAMP accumulation at 10 uM incubated for 30 mins followed by […] in presence of IBMX for 1 hr by HTRF assay relative to control; format: cell-based; details: time 90.0 min
[9] = molecular target: Insulin receptor (Homo sapiens) (UniProt P06213); assay: Inhibition of human recombinant IRK assessed as inhibition of phosphorylation activity at 10 uM using 33P-labeleled peptide substrate by radiometric scintillation counting assay relative to control
[10] = system: Mus musculus; assay: Antiallodynic activity against CFA-induced C57BL/6N mouse inflammatory pain model assessed as inhibition of inflammatory mechanical allodynia at 5.6 mg/kg, ip measured over 2 hrs post treatment by von Frey test; format: functional, organism-based
[11] = Intrinsic clearance in human liver microsomes; format: ADME, Microsome
[12] = molecular target: CYP2C9 (Homo sapiens, UniProt P11712); assay: Inhibition of CYP2C9 (unknown origin) at 10 uM relative to control; format: ADME
[13] = Apparent permeability in MDCK-II cells; format: ADME, cell-based, Canis lupus familiaris; details: dog
[14] = Metabolic stability in human liver microsomes assessed as compound remaining after 60 mins; format: ADME, Microsome; details: 1 h
[15] = Metabolic stability in human liver microsomes assessed as compound remaining after 45 mins; format: ADME, Microsome; details: 0.75 h
[16] = Half life in human liver microsomes; format: ADME, Microsome
[17] = molecular target: Voltage-gated inwardly rectifying potassium channel KCNH2 (Homo sapiens, UniProt Q12809); assay: Displacement of [3H]astemizole from human ERG expressed in HEK293 cell membrane at 10 uM by Radiometric displacement assay relative to control; format: toxicity, cell membranes; details: hek293, 10 µM
[18] = molecular target: T2, CYP1A2 (Homo sapiens, UniProt P05177); assay: Inhibition of CYP1A2 (unknown origin) at 10 uM relative to control; format: ADME
T2 sequence (P05177 whole entry): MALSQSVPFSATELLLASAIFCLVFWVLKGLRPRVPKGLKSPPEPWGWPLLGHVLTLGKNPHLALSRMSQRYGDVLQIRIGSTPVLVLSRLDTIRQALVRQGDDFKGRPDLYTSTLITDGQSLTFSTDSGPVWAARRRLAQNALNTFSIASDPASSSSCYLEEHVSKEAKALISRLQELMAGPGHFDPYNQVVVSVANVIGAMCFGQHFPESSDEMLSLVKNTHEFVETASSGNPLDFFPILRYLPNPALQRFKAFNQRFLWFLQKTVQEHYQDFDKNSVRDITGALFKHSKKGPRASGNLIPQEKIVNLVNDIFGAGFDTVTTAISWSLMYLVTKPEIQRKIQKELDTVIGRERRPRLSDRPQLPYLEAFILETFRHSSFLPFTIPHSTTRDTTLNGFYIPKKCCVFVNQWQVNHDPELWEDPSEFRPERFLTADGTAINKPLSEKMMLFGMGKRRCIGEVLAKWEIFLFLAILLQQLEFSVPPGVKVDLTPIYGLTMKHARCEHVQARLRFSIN

[19] = system: Mus musculus; assay: Antiallodynic activity against CFA-induced C57BL/6N mouse inflammatory pain model assessed as inhibition of inflammatory mechanical allodynia at 5.6 mg/kg, ip measured at 1 hr post treatment by von Frey test; format: functional, organism-based
[20] = molecular target: CYP2D6 (Homo sapiens, UniProt P10635); assay: Inhibition of CYP2D6 (unknown origin) at 10 uM relative to control; format: ADME
[21] = Metabolic stability in human liver microsomes assessed as compound remaining after 30 mins; format: ADME, Microsome; details: 0.5 h
[22] = molecular target: CYP2C19 (Homo sapiens, UniProt P33261); assay: Inhibition of CYP2C19 (unknown origin) at 10 uM relative to control; format: ADME
[23] = molecular target: CYP3A4 (Homo sapiens, UniProt P08684); assay: Inhibition of CYP3A4 (unknown origin) at 10 uM relative to control; format: ADME
[24] = Metabolic stability in human liver microsomes assessed as compound remaining after 15 mins; format: ADME, Microsome; details: 0.25 h

T1 sequence (P40145 whole entry): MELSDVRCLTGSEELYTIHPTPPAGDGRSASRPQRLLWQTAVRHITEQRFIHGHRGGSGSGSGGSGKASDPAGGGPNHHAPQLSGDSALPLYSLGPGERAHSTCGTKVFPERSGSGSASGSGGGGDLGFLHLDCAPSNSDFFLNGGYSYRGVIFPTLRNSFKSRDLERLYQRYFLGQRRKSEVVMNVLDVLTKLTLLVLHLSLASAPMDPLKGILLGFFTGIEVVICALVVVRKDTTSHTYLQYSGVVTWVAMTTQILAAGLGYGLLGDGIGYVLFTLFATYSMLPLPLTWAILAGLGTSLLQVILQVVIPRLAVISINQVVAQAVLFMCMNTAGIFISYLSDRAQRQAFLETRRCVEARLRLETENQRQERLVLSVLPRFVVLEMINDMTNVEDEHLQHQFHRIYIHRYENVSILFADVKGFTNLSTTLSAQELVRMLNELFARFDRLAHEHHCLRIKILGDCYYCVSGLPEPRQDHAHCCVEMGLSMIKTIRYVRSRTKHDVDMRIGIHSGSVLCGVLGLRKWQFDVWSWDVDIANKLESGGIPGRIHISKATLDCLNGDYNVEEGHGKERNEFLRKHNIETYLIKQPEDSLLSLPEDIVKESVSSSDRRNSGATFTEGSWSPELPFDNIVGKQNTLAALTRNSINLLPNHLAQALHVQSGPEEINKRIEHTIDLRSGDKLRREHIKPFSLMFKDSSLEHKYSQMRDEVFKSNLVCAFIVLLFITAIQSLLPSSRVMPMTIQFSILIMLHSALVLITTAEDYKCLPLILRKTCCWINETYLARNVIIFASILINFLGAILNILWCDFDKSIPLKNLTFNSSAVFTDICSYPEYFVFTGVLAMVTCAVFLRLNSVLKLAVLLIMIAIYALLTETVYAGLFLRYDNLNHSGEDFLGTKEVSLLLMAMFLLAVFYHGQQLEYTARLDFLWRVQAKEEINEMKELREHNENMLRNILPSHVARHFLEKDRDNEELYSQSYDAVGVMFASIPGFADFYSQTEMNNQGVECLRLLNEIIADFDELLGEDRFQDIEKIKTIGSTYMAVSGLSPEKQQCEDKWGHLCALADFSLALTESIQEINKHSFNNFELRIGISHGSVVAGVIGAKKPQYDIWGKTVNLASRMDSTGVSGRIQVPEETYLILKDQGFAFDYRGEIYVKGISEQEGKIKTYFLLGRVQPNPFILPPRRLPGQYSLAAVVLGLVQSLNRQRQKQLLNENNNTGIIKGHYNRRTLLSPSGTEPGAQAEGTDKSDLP
5-hydroxytryptamine receptor 2B, sequence (P41595 whole entry): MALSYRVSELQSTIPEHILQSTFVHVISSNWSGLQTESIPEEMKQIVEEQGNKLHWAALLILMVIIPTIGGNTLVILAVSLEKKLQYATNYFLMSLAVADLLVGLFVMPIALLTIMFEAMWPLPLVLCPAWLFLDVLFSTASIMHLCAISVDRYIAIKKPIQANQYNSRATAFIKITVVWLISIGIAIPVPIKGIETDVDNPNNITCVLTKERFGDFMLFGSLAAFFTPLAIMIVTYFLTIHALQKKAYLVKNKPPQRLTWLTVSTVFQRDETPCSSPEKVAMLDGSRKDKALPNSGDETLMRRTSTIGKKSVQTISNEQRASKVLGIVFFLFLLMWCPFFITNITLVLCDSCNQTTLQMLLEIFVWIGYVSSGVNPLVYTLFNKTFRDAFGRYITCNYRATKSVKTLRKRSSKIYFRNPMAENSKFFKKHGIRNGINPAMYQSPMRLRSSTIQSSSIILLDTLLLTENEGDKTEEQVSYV
Insulin receptor (Homo sapiens), sequence (P06213 28-758 limits assumed): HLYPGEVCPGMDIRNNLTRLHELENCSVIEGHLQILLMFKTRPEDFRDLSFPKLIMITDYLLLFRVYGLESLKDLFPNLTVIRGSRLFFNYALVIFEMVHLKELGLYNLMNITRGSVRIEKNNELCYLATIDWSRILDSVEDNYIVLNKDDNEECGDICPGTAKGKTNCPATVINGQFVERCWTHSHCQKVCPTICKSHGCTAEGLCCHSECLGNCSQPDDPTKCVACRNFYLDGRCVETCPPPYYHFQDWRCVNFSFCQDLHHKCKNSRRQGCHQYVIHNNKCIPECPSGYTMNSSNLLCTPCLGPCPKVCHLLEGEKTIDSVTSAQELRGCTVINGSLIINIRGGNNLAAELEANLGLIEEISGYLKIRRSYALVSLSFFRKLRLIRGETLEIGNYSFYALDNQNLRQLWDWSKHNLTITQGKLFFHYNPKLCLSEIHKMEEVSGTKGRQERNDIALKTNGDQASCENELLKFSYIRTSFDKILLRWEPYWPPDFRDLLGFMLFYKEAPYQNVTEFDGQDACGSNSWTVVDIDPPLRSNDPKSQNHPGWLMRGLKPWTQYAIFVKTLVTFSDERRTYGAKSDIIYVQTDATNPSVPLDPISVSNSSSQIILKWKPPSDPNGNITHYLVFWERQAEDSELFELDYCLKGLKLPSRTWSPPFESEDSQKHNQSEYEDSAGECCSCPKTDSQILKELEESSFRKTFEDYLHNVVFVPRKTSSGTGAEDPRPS
Insulin receptor (Homo sapiens), sequence (P06213 763-1382 limits assumed): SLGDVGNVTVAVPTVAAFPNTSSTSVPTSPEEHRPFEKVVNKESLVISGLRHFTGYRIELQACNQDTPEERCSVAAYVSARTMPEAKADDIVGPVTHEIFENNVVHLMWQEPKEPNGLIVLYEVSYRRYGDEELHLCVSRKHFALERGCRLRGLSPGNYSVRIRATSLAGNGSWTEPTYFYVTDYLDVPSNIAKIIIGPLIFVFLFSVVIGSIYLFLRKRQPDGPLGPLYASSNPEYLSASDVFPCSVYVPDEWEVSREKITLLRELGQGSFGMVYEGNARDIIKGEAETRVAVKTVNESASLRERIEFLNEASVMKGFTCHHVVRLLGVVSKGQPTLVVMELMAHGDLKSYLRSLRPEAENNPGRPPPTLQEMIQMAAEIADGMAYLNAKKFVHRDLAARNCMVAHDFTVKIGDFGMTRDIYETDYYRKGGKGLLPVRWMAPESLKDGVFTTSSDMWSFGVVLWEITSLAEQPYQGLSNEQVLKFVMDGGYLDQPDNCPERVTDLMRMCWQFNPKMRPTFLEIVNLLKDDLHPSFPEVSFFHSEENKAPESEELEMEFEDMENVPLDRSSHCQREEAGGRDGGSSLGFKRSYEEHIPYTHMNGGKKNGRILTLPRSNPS
Adenylate cyclase type 1, sequence (Q08828 whole entry): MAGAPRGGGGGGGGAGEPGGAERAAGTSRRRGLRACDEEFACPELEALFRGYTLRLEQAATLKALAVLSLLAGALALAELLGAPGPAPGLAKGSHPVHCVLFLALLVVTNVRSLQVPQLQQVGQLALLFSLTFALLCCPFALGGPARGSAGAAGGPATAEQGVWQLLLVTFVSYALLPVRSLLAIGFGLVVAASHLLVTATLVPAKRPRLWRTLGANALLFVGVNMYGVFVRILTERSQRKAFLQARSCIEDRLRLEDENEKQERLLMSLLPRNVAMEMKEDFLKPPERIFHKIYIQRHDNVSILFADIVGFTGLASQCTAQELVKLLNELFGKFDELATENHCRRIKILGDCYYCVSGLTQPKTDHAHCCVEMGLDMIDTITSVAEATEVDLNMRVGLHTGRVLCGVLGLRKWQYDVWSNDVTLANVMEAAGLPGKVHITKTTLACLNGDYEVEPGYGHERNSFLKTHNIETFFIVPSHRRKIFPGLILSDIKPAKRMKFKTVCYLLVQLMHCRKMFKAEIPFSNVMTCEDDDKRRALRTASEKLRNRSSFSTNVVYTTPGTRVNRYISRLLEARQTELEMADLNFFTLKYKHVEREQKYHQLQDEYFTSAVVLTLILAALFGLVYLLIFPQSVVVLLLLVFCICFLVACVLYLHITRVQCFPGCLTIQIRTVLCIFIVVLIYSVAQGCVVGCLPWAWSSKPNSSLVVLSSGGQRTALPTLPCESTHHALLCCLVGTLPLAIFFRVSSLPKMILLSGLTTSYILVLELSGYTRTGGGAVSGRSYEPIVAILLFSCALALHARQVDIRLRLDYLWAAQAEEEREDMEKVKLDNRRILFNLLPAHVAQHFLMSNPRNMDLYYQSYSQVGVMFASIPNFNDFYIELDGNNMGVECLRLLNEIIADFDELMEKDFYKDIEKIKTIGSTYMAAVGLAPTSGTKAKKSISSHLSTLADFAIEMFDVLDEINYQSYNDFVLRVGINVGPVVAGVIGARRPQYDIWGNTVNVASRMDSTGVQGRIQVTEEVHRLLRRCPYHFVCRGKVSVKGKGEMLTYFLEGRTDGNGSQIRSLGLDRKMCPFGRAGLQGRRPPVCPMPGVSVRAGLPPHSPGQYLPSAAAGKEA
CYP2D6, sequence (P10635 whole entry): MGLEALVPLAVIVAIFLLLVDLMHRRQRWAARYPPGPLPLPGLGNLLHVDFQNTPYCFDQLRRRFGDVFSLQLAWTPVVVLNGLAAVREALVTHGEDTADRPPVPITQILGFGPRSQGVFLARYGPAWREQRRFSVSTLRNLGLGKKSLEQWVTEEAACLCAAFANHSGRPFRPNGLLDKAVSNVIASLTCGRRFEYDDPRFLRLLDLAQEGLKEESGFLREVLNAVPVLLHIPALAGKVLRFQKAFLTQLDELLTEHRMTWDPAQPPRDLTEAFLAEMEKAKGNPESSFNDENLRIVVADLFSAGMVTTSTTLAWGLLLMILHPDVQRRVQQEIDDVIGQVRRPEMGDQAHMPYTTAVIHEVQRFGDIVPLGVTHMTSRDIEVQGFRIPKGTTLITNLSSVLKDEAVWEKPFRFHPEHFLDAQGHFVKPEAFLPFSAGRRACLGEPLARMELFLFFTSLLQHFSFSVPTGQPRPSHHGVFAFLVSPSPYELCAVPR

SMILES	IC50 [1] [nM]	IC50 [2] [nM]	inhibition [3] [%]	also measured
CCc1cc(=O)[nH]c(-n2nc(C)cc2NC(=O)c2cccc(Br)c2)n1	2100	610	15	–
CCc1cc(=O)[nH]c(-n2nc(C)cc2NC(=O)c2cccc(SC)c2)n1	1300	630	52	–
CCc1cccc(C(=O)Nc2cc(C)nn2-c2nc(CC)cc(=O)[nH]2)c1	3500	440	12	inhibition [4]: 28%; solubility thermodynamic [5]: 10.8 µM (≈ 3.8 µg/mL); inhibition ([6]; filed as antagonist): 49%; Activity [7]: Non-Toxic; inhibition [8]: Active; inhibition [9]: 57%
CCc1cc(=O)[nH]c(-n2nc(C)cc2NC(=O)c2cccc(F)c2)n1	1600	1400	55	–
CCc1cc(=O)[nH]c(-n2nc(C)cc2NC(=O)c2ccccc2CC)n1	> 60000	3100	21	–
CCc1cc(=O)[nH]c(-n2nc(C)cc2NC(=O)c2ccccc2)n1	35900	2800	0	–
CCc1cc(=O)[nH]c(-n2nc(C)cc2NC(=O)c2ccc(F)cc2)n1	780	790	52	–
CCc1cc(=O)[nH]c(-n2nc(C)cc2NC(=O)c2cccc(C(C)(C)C)c2)n1	380	880	25	–
CCc1cc(=O)[nH]c(-n2nc(C)cc2NC(=O)c2cccc(OC)c2)n1	9600	1420	5	–
CCc1ccc(C(=O)Nc2cc(C)nn2-c2nc(CC)cc(=O)[nH]2)cc1	6600	390	19	–
CN1CC[C@]23c4c5ccc(O)c4O[C@H]2[C@@H](O)C=C[C@H]3[C@H]1C5	–	–	–	Activity [10]: Active
CCc1cc(=O)[nH]c(-n2nc(C)cc2NC(=O)c2cc(C)ccc2F)n1	–	–	–	CLH [11]: 136.7 µL/min/mg; inhibition at 10 µM [12]: -0.2%; Papp [13]: 2.21 ×10⁻⁶ cm/s; Stability [14]: 44.5%; Stability [15]: 57.5%; t1/2 [16]: 51.2 min; solubility thermodynamic [5]: 33.6 µM (≈ 11.9 µg/mL); inhibition (INH) [17]: 6%; inhibition at 10 µM [18]: 8.7%; Activity [7]: Non-Toxic; inhibition [8]: Active; Activity [19]: Active; inhibition at 10 µM [20]: 0.3%; Stability [21]: 67.4%; inhibition at 10 µM [22]: 1.8%; inhibition at 10 µM [23]: -0.9%; Stability [24]: 88.3%; inhibition [9]: 64%
CCc1cc(=O)[nH]c(-n2nc(C)cc2NC(=O)c2cccc(C)c2)n1	2700	410	27	solubility thermodynamic [5]: 19.5 µM (≈ 6.58 µg/mL); Ki [6]: 900 nM; Activity [7]: Non-Toxic; inhibition [8]: Active
CCc1cc(=O)[nH]c(-n2nc(C)cc2NC(=O)c2ccc(-c3ccccc3)cc2)n1	700	770	32	–
CCc1cc(=O)[nH]c(-n2nc(C)cc2NC(=O)c2cccc(C)c2F)n1	> 60000	570	9	–
CCc1cc(=O)[nH]c(-n2nc(C)cc2NC(=O)c2cccc(C(C)C)c2)n1	2600	360	28	–
CCOc1cccc(C(=O)Nc2cc(C)nn2-c2nc(CC)cc(=O)[nH]2)c1	4400	900	11	–
CCc1cc(=O)[nH]c(-n2nc(C)cc2NC(C)=O)n1	10600	> 30000	–	–
CCc1cc(=O)[nH]c(-n2nc(C)cc2NC(=O)c2ccc(OCOC)cc2)n1	> 30000	4300	–	–

SMILES	IC50 [1] [nM]	IC50 [2] [nM]	inhibition [3] [%]	also measured
CCc1cc(=O)[nH]c(-n2nc(C)cc2NC(=O)c2ccccc2F)n1	1900	1400	46	Ki [6]: 1300 nM; Activity [7]: Non-Toxic; inhibition [8]: Active
CCc1cc(=O)[nH]c(-n2nc(C)cc2NC(=O)c2ccc(C)cc2)n1	> 60000	670	27	–
CCc1cc(=O)[nH]c(-n2nc(C)cc2NC(=O)Cc2ccccc2F)n1	3400	16300	–	–
CCc1cc(=O)[nH]c(-n2nc(C)cc2NC(=O)c2cc(C)cc(C)c2)n1	1700	520	27	–
CCc1cc(=O)[nH]c(-n2nc(C)cc2NC(=O)c2ccc(Cl)cc2)n1	2500	360	53	–
CCc1cc(=O)[nH]c(-n2nc(C)cc2NC(=O)c2cccc(Cl)c2)n1	1000	470	48	–
CCc1cc(=O)[nH]c(-n2nc(C)cc2NC(=O)c2cccc(-c3ccccc3)c2)n1	570	250	37	–
CCc1cc(=O)[nH]c(-n2nc(C)cc2NC(=O)c2cccc(C(F)(F)F)c2)n1	1300	680	41	–
CCc1cc(=O)[nH]c(-n2nc(C)cc2NC(=O)c2ccc(N(C)C)cc2)n1	1000	2300	39	–
CCc1cc(=O)[nH]c(-n2nc(C)cc2NC(=O)c2ccc(O)cc2)n1	> 60000	> 60000	–	–
CCc1cc(=O)[nH]c(-n2nc(C)cc2NC(=O)c2ccccn2)n1	2800	–	46	–
CCc1cc(=O)[nH]c(-n2nc(C)cc2NC(=O)c2ccc(C(C)(C)C)cc2)n1	1200	970	35	–
CCc1cc(=O)[nH]c(-n2nc(C)cc2NC(=O)c2ccco2)n1	15700	6700	20	–
CCc1cc(=O)[nH]c(-n2nc(C)cc2NC(=O)c2ccccc2C)n1	15700	2200	11	–
CCc1cc(=O)[nH]c(-n2nc(C)cc2NC(=O)c2ccc(C)c(C)c2)n1	710	290	27	solubility thermodynamic [5]: 7.6 µM (≈ 2.67 µg/mL); inhibition [6]: 32%; inhibition (INH) [17]: 11%; Activity [7]: Non-Toxic; inhibition [8]: Active; inhibition [9]: 4%
CCc1cc(=O)[nH]c(-n2nc(C)cc2NC(=O)Cc2cccc(C)c2)n1	> 60000	9200	59	–
CCc1cc(=O)[nH]c(-n2nc(C)cc2NC(=O)c2ccc(OC)cc2)n1	> 60000	–	0	–
CCc1cc(=O)[nH]c(-n2nc(C)cc2NC(=O)c2cccc(C3CC3)c2)n1	1900	810	17	–
